Consider one compound from article PMC6873183, “Mechanically activated Piezo1 channels of cardiac fibroblasts stimulate p38 mitogen-activated protein kinase activity and interleukin-6 secretion” (The Journal of Biological Chemistry, 2019).

Experiment [1] concerns the target T1, Piezo1 (human cardiac fibroblasts, endogenous) (Homo sapiens, UniProt Q92508).
T1 construct: endogenous full-length channel in cultured human atrial cardiac fibroblasts; Yoda1 response reduced by Piezo1 siRNA
Briefly: Fura-2 intracellular Ca2+ assay, 96-well plate reader. It counts as cell-based. The settings on record: activator (agonist); native human cardiac fibroblasts; 2.5 mM probenecid, 1.5 mM CaCl2, pH 7.4; estimate, Yoda1 limited to 10 μM by solubility.

In a further experiment the target is T2, mouse Piezo1 (Mus musculus, UniProt E2JF22).
T2 construct: the Dooku1 and ruthenium red rows are from native C57BL/6J cardiac fibroblasts
T2 sequence (E2JF22 whole entry): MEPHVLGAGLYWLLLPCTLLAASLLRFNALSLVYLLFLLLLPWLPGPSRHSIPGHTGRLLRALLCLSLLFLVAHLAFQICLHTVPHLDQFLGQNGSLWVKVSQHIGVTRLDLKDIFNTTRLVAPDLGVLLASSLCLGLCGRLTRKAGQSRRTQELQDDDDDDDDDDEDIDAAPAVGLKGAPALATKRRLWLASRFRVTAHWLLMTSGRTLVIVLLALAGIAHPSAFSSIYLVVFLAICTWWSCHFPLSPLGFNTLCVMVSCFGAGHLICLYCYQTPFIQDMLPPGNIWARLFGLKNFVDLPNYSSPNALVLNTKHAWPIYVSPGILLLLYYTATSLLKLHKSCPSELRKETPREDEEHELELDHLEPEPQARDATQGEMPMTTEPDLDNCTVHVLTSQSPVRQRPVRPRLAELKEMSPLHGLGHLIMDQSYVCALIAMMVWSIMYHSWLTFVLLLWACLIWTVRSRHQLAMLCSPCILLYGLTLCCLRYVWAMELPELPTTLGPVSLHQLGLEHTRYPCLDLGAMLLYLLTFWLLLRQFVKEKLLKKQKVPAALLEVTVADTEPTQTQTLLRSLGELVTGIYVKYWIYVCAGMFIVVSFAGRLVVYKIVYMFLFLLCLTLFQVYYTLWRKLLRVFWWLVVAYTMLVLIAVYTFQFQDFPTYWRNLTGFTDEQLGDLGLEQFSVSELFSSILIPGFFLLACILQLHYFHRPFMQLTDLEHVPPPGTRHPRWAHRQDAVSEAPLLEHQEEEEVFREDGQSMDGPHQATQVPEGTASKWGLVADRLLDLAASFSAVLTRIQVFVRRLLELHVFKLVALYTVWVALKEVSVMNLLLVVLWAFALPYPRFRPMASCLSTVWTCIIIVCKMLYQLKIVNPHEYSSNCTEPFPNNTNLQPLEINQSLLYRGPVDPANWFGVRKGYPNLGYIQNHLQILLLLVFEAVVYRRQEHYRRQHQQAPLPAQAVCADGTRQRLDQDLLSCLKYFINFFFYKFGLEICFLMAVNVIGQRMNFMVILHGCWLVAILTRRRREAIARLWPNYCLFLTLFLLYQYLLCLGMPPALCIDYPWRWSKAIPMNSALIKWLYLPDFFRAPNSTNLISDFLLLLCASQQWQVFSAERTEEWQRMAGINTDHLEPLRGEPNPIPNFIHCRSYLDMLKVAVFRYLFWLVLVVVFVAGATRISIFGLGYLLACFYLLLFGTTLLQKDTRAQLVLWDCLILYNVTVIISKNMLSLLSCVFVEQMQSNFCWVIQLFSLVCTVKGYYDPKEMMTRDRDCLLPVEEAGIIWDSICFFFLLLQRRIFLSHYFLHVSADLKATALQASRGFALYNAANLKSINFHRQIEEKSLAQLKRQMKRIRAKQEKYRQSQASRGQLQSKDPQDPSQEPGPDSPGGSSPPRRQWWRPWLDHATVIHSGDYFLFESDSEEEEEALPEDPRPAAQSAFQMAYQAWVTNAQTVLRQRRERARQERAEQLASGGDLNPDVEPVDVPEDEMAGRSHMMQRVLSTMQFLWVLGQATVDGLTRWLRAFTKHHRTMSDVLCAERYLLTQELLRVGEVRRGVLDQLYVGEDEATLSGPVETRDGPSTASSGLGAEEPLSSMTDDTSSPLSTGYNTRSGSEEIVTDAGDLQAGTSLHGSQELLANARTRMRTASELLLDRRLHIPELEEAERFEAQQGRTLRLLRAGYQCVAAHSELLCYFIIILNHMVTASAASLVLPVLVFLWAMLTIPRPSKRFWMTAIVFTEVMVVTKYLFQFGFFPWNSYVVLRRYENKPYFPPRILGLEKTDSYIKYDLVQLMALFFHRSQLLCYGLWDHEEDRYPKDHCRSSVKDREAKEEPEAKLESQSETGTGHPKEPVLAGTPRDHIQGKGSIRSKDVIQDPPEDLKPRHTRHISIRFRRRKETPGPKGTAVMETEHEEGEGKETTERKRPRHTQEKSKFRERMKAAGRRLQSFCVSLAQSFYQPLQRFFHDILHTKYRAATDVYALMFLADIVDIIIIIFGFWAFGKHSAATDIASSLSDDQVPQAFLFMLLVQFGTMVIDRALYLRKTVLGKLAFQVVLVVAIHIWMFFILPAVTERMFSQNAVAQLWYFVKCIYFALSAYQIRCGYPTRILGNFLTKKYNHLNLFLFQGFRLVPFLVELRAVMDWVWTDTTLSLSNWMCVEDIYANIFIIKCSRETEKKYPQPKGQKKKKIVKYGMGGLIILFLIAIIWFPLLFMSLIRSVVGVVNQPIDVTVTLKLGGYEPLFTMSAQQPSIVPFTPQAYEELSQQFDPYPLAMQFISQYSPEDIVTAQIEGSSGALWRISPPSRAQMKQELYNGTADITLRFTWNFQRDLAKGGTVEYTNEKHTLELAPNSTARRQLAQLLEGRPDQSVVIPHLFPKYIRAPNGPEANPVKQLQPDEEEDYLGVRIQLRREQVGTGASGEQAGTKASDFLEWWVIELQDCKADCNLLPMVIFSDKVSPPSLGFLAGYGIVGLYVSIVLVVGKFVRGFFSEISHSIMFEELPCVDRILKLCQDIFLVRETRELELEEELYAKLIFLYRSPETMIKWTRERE
Described as above. The class given is cell-based.

T1 sequence (Q92508 whole entry): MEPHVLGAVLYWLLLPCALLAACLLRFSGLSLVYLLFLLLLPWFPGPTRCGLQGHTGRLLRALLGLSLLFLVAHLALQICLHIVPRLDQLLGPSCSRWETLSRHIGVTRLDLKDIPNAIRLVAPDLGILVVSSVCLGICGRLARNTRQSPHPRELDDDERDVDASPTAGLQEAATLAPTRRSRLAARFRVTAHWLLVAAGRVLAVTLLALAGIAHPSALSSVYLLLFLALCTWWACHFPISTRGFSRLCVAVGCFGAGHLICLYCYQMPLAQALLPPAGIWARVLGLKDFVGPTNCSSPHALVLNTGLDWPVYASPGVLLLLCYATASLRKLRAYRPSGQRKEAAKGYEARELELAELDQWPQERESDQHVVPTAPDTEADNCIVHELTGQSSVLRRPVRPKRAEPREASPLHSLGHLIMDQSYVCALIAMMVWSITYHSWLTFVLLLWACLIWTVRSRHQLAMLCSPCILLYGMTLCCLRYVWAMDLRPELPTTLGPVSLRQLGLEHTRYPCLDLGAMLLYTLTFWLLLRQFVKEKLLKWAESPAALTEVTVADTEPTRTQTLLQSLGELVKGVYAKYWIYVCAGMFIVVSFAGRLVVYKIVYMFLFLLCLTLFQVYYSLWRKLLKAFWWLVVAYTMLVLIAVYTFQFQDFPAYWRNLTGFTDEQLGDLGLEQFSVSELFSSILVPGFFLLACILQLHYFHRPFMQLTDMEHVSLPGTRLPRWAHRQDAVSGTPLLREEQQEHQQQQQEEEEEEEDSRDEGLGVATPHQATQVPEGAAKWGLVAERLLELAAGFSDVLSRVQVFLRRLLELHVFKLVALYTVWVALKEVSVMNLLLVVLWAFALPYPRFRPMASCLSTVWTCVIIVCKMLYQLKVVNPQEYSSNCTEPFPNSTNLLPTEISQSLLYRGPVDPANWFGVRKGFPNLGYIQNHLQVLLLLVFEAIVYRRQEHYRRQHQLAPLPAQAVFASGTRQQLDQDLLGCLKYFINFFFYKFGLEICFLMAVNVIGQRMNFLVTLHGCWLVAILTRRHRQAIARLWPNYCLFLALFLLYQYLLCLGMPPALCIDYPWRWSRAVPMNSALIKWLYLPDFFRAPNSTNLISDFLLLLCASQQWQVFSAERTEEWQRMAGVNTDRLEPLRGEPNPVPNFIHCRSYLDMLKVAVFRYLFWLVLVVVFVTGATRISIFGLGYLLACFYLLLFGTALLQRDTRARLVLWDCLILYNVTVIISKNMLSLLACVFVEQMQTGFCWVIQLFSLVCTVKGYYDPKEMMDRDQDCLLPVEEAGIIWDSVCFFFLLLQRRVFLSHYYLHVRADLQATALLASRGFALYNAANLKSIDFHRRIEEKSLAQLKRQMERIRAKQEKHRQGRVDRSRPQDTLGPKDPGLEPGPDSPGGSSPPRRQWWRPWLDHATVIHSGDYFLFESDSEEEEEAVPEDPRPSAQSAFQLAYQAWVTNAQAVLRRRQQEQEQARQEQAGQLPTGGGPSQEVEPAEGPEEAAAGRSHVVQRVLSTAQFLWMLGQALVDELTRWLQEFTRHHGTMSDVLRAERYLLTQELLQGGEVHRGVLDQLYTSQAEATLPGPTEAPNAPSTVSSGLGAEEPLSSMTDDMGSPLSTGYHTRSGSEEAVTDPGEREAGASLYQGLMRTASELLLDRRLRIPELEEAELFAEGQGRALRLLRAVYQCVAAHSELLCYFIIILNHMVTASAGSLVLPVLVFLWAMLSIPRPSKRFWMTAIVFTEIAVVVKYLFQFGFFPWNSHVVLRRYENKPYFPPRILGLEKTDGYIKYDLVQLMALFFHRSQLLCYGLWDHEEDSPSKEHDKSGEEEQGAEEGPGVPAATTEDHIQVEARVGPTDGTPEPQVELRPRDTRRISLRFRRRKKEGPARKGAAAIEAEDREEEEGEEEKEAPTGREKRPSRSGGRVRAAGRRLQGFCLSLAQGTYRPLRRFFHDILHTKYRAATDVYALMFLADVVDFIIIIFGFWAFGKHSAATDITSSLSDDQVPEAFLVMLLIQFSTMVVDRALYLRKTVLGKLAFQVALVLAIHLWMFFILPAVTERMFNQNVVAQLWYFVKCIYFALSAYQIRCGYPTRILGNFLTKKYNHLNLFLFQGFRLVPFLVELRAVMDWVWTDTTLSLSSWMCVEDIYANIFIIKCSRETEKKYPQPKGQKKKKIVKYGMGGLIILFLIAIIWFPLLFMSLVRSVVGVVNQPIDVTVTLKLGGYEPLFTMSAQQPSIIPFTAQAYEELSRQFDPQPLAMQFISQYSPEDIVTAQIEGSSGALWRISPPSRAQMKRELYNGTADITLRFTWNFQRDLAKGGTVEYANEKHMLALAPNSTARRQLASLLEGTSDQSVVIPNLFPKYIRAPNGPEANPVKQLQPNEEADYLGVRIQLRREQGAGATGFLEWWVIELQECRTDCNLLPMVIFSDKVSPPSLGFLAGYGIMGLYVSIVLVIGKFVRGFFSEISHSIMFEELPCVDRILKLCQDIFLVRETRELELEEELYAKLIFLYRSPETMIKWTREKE

The EC50 is the midpoint of the concentration-response curve. Take `Clc1cccc(Cl)c1CSc1nnc(-c2cnccn2)s1` [Yoda1]: the EC50 is 710 nM in experiment [1] and 330 nM at mouse Piezo1.
